Data taken from ChEMBL document CHEMBL3885881, “DrugMatrix”.

Species on record: Rattus norvegicus
Experiment: DrugMatrix - Regimen: Daily Repeat
Type: toxicity, organism-based, Sprague-Dawley
Set-up: regimen Daily Repeat, gender Male, age 6-8 weeks
Settings: in vivo, sc, 0 mg/kg, route subcutaneous, dose level Control, […]; for ABSOLUTE BASOPHIL / ABSOLUTE EOSINOPHIL / ABSOLUTE LYMPHOCYTE / ABSOLUTE MONOCYTE / ABSOLUTE SEGMENTED NEUTROPHIL / BASOPHIL / EOSINOPHIL / ERYTHROCYTE COUNT / HEMATOCRIT / HEMOGLOBIN / LEUKOCYTE COUNT / LYMPHOCYTE / MEAN CORPUSCULAR HEMOGLOBIN / MEAN CORPUSCULAR VOLUME / MONOCYTE / NEUTROPHIL / NUCLEATED RED BLOOD CELLS / PLATELET COUNT: tissue Blood; for ALANINE AMINOTRANSFERASE / ALBUMIN / ALKALINE PHOSPHATASE / ASPARTATE AMINOTRANSFERASE / BLOOD UREA NITROGEN / CARBON DIOXIDE / CHLORIDE / CHOLESTEROL / CREATINE PHOSPHOKINASE / CREATININE / GLUCOSE / LACTATE DEHYDROGENASE / LIPASE / PHOSPHORUS / POTASSIUM / SODIUM / TOTAL BILIRUBIN / TOTAL PROTEIN / URIC ACID: tissue Plasma

With `CC(C)(C)CC(C)(C)c1ccc(OCCOCC[N+](C)(C)Cc2ccccc2)cc1.[Cl-]` [BENZETHONIUM CHLORIDE] the “ABSOLUTE BASOPHIL” value (72 h, time 3 day) was 0 CELLS/uL, the “ABSOLUTE EOSINOPHIL” value (72 h, time 3 day) was 92.33 CELLS/uL and the “ABSOLUTE LYMPHOCYTE” value (72 h, time 3 day) was 12247.5 CELLS/uL. The “ABSOLUTE MONOCYTE” value (72 h, time 3 day) was 389.67 CELLS/uL, the “ABSOLUTE SEGMENTED NEUTROPHIL” value (72 h, time 3 day) was 1320.5 CELLS/uL and the BASOPHIL (72 h, time 3 day) was 0%. For the same molecule, the EOSINOPHIL (72 h, time 3 day) was 0.67%, the “ERYTHROCYTE COUNT” value (72 h, time 3 day) was 5.45 x10E6/uL and the HEMATOCRIT (72 h, time 3 day) was 34.85%. The HEMOGLOBIN (72 h, time 3 day) was 12.97 G/DL, the “LEUKOCYTE COUNT” value (72 h, time 3 day) was 14.05 x10E3/uL and the LYMPHOCYTE (72 h, time 3 day) was 87.33%. The “MEAN CORPUSCULAR HEMOGLOBIN” value (72 h, time 3 day) was 23.78 pg, the “MEAN CORPUSCULAR VOLUME” value (72 h, time 3 day) was 63.93 fL and the MONOCYTE (72 h, time 3 day) was 2.67%. For the same molecule, the NEUTROPHIL (72 h, time 3 day) was 9.33%, the “NUCLEATED RED BLOOD CELLS” value (72 h, time 3 day) was 0 /100WBC and the “PLATELET COUNT” value (72 h, time 3 day) was 1174 x10E3/uL. For the same molecule, the “ALANINE AMINOTRANSFERASE” value (72 h, time 3 day) was 48.83 u/L, the ALBUMIN (72 h, time 3 day) was 4.23 G/DL and the “ALKALINE PHOSPHATASE” value (72 h, time 3 day) was 351.5 u/L. For the same molecule, the “ASPARTATE AMINOTRANSFERASE” value (72 h, time 3 day) was 90 u/L, the “BLOOD UREA NITROGEN” value (72 h, time 3 day) was 15.33 mg/dL and the “CARBON DIOXIDE” value (72 h, time 3 day) was 23 mmol/L. The CHLORIDE (72 h, time 3 day) was 103.5 MEQ/L, the CHOLESTEROL (72 h, time 3 day) was 70.5 mg/dL and the “CREATINE PHOSPHOKINASE” value (72 h, time 3 day) was 651.83 u/L. The CREATININE (72 h, time 3 day) was 0.22 mg/dL, the GLUCOSE (72 h, time 3 day) was 180.67 mg/dL and the “LACTATE DEHYDROGENASE” value (72 h, time 3 day) was 165 u/L. The LIPASE (72 h, time 3 day) was 9.33 u/L, the PHOSPHORUS (72 h, time 3 day) was 12.03 mg/dL and the POTASSIUM (72 h, time 3 day) was 6.17 MEQ/L. For the same molecule, the SODIUM (72 h, time 3 day) was 142.62 MEQ/L, the “TOTAL BILIRUBIN” value (72 h, time 3 day) was 0.2 mg/dL and the “TOTAL PROTEIN” value (72 h, time 3 day) was 5.73 G/DL. The “URIC ACID” value (72 h, time 3 day) was 1.77 mg/dL, the “ABSOLUTE BASOPHIL” value (120 h, time 5 day) was 0 CELLS/uL and the “ABSOLUTE EOSINOPHIL” value (120 h, time 5 day) was 0 CELLS/uL. For the same molecule, the “ABSOLUTE LYMPHOCYTE” value (120 h, time 5 day) was 12736.67 CELLS/uL, the “ABSOLUTE MONOCYTE” value (120 h, time 5 day) was 253.5 CELLS/uL and the “ABSOLUTE SEGMENTED NEUTROPHIL” value (120 h, time 5 day) was 1193.17 CELLS/uL. For the same molecule, the BASOPHIL (120 h, time 5 day) was 0%, the EOSINOPHIL (120 h, time 5 day) was 0% and the “ERYTHROCYTE COUNT” value (120 h, time 5 day) was 5.72 x10E6/uL. For the same molecule, the HEMATOCRIT (120 h, time 5 day) was 36.05%, the HEMOGLOBIN (120 h, time 5 day) was 13.62 G/DL and the “LEUKOCYTE COUNT” value (120 h, time 5 day) was 14.18 x10E3/uL. The LYMPHOCYTE (120 h, time 5 day) was 89.33%, the “MEAN CORPUSCULAR HEMOGLOBIN” value (120 h, time 5 day) was 23.83 pg and the “MEAN CORPUSCULAR VOLUME” value (120 h, time 5 day) was 63.05 fL. The MONOCYTE (120 h, time 5 day) was 1.83%, the NEUTROPHIL (120 h, time 5 day) was 8.83% and the “NUCLEATED RED BLOOD CELLS” value (120 h, time 5 day) was 0 /100WBC. The “PLATELET COUNT” value (120 h, time 5 day) was 1322.17 x10E3/uL, the “ALANINE AMINOTRANSFERASE” value (120 h, time 5 day) was 48.83 u/L and the ALBUMIN (120 h, time 5 day) was 4.27 G/DL. For the same molecule, the “ALKALINE PHOSPHATASE” value (120 h, time 5 day) was 295.17 u/L, the “ASPARTATE AMINOTRANSFERASE” value (120 h, time 5 day) was 75.83 u/L and the “BLOOD UREA NITROGEN” value (120 h, time 5 day) was 15.5 mg/dL. For the same molecule, the “CARBON DIOXIDE” value (120 h, time 5 day) was 30.5 mmol/L, the CHLORIDE (120 h, time 5 day) was 102.33 MEQ/L and the CHOLESTEROL (120 h, time 5 day) was 76.17 mg/dL. The “CREATINE PHOSPHOKINASE” value (120 h, time 5 day) was 205.5 u/L, the CREATININE (120 h, time 5 day) was 0.2 mg/dL and the GLUCOSE (120 h, time 5 day) was 149.67 mg/dL. For the same molecule, the “LACTATE DEHYDROGENASE” value (120 h, time 5 day) was 124.5 u/L, the LIPASE (120 h, time 5 day) was 10 u/L and the PHOSPHORUS (120 h, time 5 day) was 10.93 mg/dL. For the same molecule, the POTASSIUM (120 h, time 5 day) was 6.59 MEQ/L, the SODIUM (120 h, time 5 day) was 143.1 MEQ/L and the “TOTAL BILIRUBIN” value (120 h, time 5 day) was 0.2 mg/dL. For the same molecule, the “TOTAL PROTEIN” value (120 h, time 5 day) was 6.05 G/DL and the “URIC ACID” value (120 h, time 5 day) was 1.45 mg/dL.
